According to ChEMBL document CHEMBL3286290, “In vitro screening of pentamidine analogs against bacterial and fungal strains” (Bioorg Med Chem Lett, 2014):
In brackets after ≈: the same amount, converted by molar mass. Where a name gives a salt, the structure may show the parent alone.

Tests used:
Type in all cases: functional
Micrococcus luteus [1] = experiment: Antibacterial activity against Micrococcus luteus ATCC 9341 assessed as growth inhibition by M7-A6 method
Micrococcus luteus [2] = experiment: Antibacterial activity against Micrococcus luteus ATCC 10240 assessed as growth inhibition by M7-A6 method
Bacillus subtilis = experiment: Antibacterial activity against Bacillus subtilis ATCC 6633 assessed as growth inhibition by M7-A6 method
Bacillus cereus = experiment: Antibacterial activity against Bacillus cereus ATCC 11778 assessed as growth inhibition by M7-A6 method
Staphylococcus aureus [3] = experiment: Antibacterial activity against Staphylococcus aureus ATCC 6538 assessed as growth inhibition by M7-A6 method
Staphylococcus aureus [4] = experiment: Antibacterial activity against Staphylococcus aureus ATCC 6538P assessed as growth inhibition by M7-A6 method
Escherichia coli [5] = experiment: Antibacterial activity against Escherichia coli ATCC 8739 assessed as growth inhibition by M7-A6 method
Escherichia coli [6] = experiment: Antibacterial activity against Escherichia coli ATCC 10536 assessed as growth inhibition by M7-A6 method
Pseudomonas aeruginosa [7] = experiment: Antibacterial activity against Pseudomonas aeruginosa ATCC 15442 assessed as growth inhibition by M7-A6 method
Pseudomonas aeruginosa [8] = experiment: Antibacterial activity against Pseudomonas aeruginosa ATCC 9027 assessed as growth inhibition by M7-A6 method
Candida albicans [9] = experiment: Antifungal activity against Candida albicans ATCC 10231 assessed as growth inhibition by M7-A6 method
Candida albicans [10] = experiment: Antifungal activity against Candida albicans ATCC 2091 assessed as growth inhibition by M7-A6 method
Candida parapsilosis = experiment: Antifungal activity against Candida parapsilosis ATCC 22019 assessed as growth inhibition by M7-A6 method; conditions: Lodderomyces parapsilosis
Aspergillus brasiliensis = experiment: Antifungal activity against Aspergillus brasiliensis ATCC 16404 assessed as growth inhibition by M7-A6 method
[11] = Antifungal activity against Zygosaccharomyces rouxii ATCC 28253 assessed as growth inhibition by M7-A6 method
Saccharomyces cerevisiae = experiment: Antifungal activity against Saccharomyces cerevisiae ATCC 9763 assessed as growth inhibition by M7-A6 method
Staphylococcus aureus [12] = experiment: Antibacterial activity against erythromycin, amikacin, clindamycin, ciprofloxacin, methicillin-resistant Staphylococcus aureus 15K/11 assessed as growth inhibition by M7-A6 method
Staphylococcus aureus [13] = experiment: Antibacterial activity against penicillin, erythromycin, amikacin, clindamycin, ciprofloxacin, methicillin-resistant Staphylococcus aureus 495/11 assessed as growth inhibition by M7-A6 method
Staphylococcus aureus [14] = experiment: Antibacterial activity against penicillin, erythromycin, amikacin, clindamycin, ciprofloxacin, methicillin-resistant Staphylococcus aureus 572/12 assessed as growth inhibition by M7-A6 method
Staphylococcus aureus [15] = experiment: Antibacterial activity against penicillin, erythromycin, clindamycin, ciprofloxacin, methicillin-resistant Staphylococcus aureus 19K/11 assessed as growth inhibition by M7-A6 method
Staphylococcus aureus [16] = experiment: Antibacterial activity against penicillin, erythromycin, amikacin, clindamycin, ciprofloxacin, methicillin-resistant Staphylococcus aureus 573/12 assessed as growth inhibition by M7-A6 method

Row | SMILES | MIC (Micrococcus luteus [1]) | MIC (Micrococcus luteus [2]) | MIC (Bacillus subtilis) | MIC (Bacillus cereus) | MIC (Staphylococcus aureus [3]) | MIC (Staphylococcus aureus [4]) | MIC (Escherichia coli [5]) | MIC (Escherichia coli [6]) | MIC (Pseudomonas aeruginosa [7]) | MIC (Pseudomonas aeruginosa [8]) | MIC (Candida albicans [9]) | MIC (Candida albicans [10]) | MIC (Candida parapsilosis) | MIC (Aspergillus brasiliensis) | MIC [11] | MIC (Saccharomyces cerevisiae) | also measured
1 | COc1cc(C(=N)N)cc(OC)c1OCCN(C)CCOc1c(OC)cc(C(=N)N)cc1OC | 760 µM (≈ 361 µg/mL) | 1520 µM (≈ 723 µg/mL) | 1520 µM (≈ 723 µg/mL) | 7610 µM (≈ 3620 µg/mL) | 7610 µM (≈ 3620 µg/mL) | 7610 µM (≈ 3620 µg/mL) | 7610 µM (≈ 3620 µg/mL) | 15200 µM (≈ 7240 µg/mL) | > 15200 µM | > 15200 µM | > 15200 µM | > 15200 µM | > 15200 µM |  |  |  | 
2 | N=C(N)c1ccc(OCCCCCOc2ccc(C(=N)N)cc2)cc1 [PENTAMIDINE HYDROCHLORIDE] | 1.1 µM | 4.4 µM | 67 µM | 1.1 µM | 22 µM | 67 µM | 280 µM | 280 µM | 1670 µM | 1110 µM | 110 µM | 110 µM | 4.4 µM | 22 µM | 67 µM | 280 µM | MIC (Staphylococcus aureus [12]): 1110 µM; MIC (Staphylococcus aureus [13]): 1110 µM; MIC (Staphylococcus aureus [14]): 560 µM; MIC (Staphylococcus aureus [15]): 140 µM; MIC (Staphylococcus aureus [16]): 140 µM
3 | COc1cc(C(=N)N)ccc1OCCN(C)CCOc1ccc(C(=N)N)cc1OC | 200 µM (≈ 83.1 µg/mL) | 410 µM (≈ 170 µg/mL) | 810 µM (≈ 337 µg/mL) | 100 µM (≈ 41.5 µg/mL) | 8130 µM (≈ 3380 µg/mL) | 8130 µM (≈ 3380 µg/mL) | 8130 µM (≈ 3380 µg/mL) | 16300 µM (≈ 6760 µg/mL) | > 16300 µM | > 16300 µM | > 16300 µM | > 16300 µM | > 16300 µM |  |  |  | 
4 | CN(CCOc1ccc(C(=N)N)cc1)CCOc1ccc(C(=N)N)cc1 | 1060 µM (≈ 377 µg/mL) | 1060 µM (≈ 377 µg/mL) | 2110 µM (≈ 750 µg/mL) | 1060 µM (≈ 377 µg/mL) | 21100 µM (≈ 7500 µg/mL) | 10600 µM (≈ 3770 µg/mL) | 21100 µM (≈ 7500 µg/mL) | 21100 µM (≈ 7500 µg/mL) | > 21100 µM | > 21100 µM | > 21100 µM | > 21100 µM | 10600 µM (≈ 3770 µg/mL) |  |  |  | 

More lines, main results first:

Row | MIC (Micrococcus luteus [1]) | MIC (Micrococcus luteus [2]) | MIC (Bacillus subtilis) | MIC (Bacillus cereus) | MIC (Staphylococcus aureus [3]) | MIC (Staphylococcus aureus [4]) | MIC (Escherichia coli [5]) | MIC (Escherichia coli [6]) | MIC (Pseudomonas aeruginosa [7]) | MIC (Pseudomonas aeruginosa [8]) | MIC (Candida albicans [9]) | MIC (Candida albicans [10]) | MIC (Candida parapsilosis) | MIC (Aspergillus brasiliensis) | MIC [11] | MIC (Saccharomyces cerevisiae) | SMILES | also measured
5 | 24 µM (≈ 8.17 µg/mL) | 71 µM (≈ 24.2 µg/mL) | 590 µM (≈ 201 µg/mL) | 590 µM (≈ 201 µg/mL) | 590 µM (≈ 201 µg/mL) | 590 µM (≈ 201 µg/mL) | 2370 µM (≈ 807 µg/mL) | 11800 µM (≈ 4030 µg/mL) | > 23700 µM | > 23700 µM | 5920 µM (≈ 2020 µg/mL) | 5920 µM (≈ 2020 µg/mL) | 71 µM (≈ 24.2 µg/mL) | 5920 µM (≈ 2020 µg/mL) | 5920 µM (≈ 2020 µg/mL) | 11800 µM (≈ 4030 µg/mL) | N=C(N)c1ccc(NCCOCCNc2ccc(C(=N)N)cc2)cc1 | 
6 | 17 µM (≈ 7.86 µg/mL) | 51 µM (≈ 23.6 µg/mL) | 420 µM (≈ 194 µg/mL) | 17000 µM (≈ 7840 µg/mL) | 210 µM (≈ 97.1 µg/mL) | 210 µM (≈ 97.1 µg/mL) | 17000 µM (≈ 7840 µg/mL) | 17000 µM (≈ 7840 µg/mL) | > 17000 µM | > 17000 µM | > 17000 µM | > 17000 µM | > 17000 µM |  |  |  | COc1cc(C(=N)N)cc(OC)c1OCCOCCOc1c(OC)cc(C(=N)N)cc1OC | 
7 | 100 µM (≈ 48.2 µg/mL) | 16 µM (≈ 7.71 µg/mL) | 82 µM (≈ 39.5 µg/mL) | 16 µM (≈ 7.71 µg/mL) | 49 µM (≈ 23.6 µg/mL) | 49 µM (≈ 23.6 µg/mL) | 210 µM (≈ 101 µg/mL) | 210 µM (≈ 101 µg/mL) | 1640 µM (≈ 790 µg/mL) | 1640 µM (≈ 790 µg/mL) | 210 µM (≈ 101 µg/mL) | 210 µM (≈ 101 µg/mL) | 100 µM (≈ 48.2 µg/mL) | 8220 µM (≈ 3960 µg/mL) | 10 µM (≈ 4.82 µg/mL) | 210 µM (≈ 101 µg/mL) | N=C(N)c1ccc(OCCN(CCOc2ccc(C(=N)N)cc2)S(=O)(=O)c2ccccc2)cc1 | 
8 | 2.8 µM (≈ 1.68 µg/mL) | 7 µM (≈ 4.21 µg/mL) | 70 µM (≈ 42.1 µg/mL) | 88 µM (≈ 52.9 µg/mL) | 70 µM (≈ 42.1 µg/mL) | 70 µM (≈ 42.1 µg/mL) | 7040 µM (≈ 4240 µg/mL) | 7040 µM (≈ 4240 µg/mL) | 7040 µM (≈ 4240 µg/mL) | 7040 µM (≈ 4240 µg/mL) | 7040 µM (≈ 4240 µg/mL) | 7040 µM (≈ 4240 µg/mL) | 7040 µM (≈ 4240 µg/mL) | 7040 µM (≈ 4240 µg/mL) | 7040 µM (≈ 4240 µg/mL) | 7040 µM (≈ 4240 µg/mL) | COc1cc(C(=N)N)cc(OC)c1OCCN(CCOc1c(OC)cc(C(=N)N)cc1OC)S(=O)(=O)c1ccccc1 | 
